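These data come from cells grown in 96-well plates and exposed to compound for 48 hours at five concentrations. Abbreviation: GI50, concentration required for 50% inhibition of growth.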 Calls of active or inactive are those of the source. No stated cut-off is given here; in the data, active = GI50 up to about 1.1 µM and inactive = higher.
Tested on: T47D
Experiment: NCI anticancer screen, dose series, 48 h

SMILES	GI50
CCOC(=O)Cn1c(C(F)(F)F)nc2nc(Cl)c(Cl)nc21	33.3 µM (inactive)
Oc1ccc(-c2ccccc2)nn1	> 100 µM (inactive)
O=C(O)Cc1nc[nH]c1C(=O)O	> 100 µM (inactive)
CCCCCCCCCCCCn1c(=O)cc(NCCCC)c2cc3c(NCCCC)cc(=O)n(CCCCCCCCCCCC)c3nc21	> 100 µM (inactive)
C=C1CC/C=C(\C)CCC[C@H](C)[C@@H](O)[C@@H]2OC(=O)C(=C)[C@@H]2C[C@H]1O	8.24 µM (inactive)
CN(C)c1ccc(/C=N/c2nc3cc4sc(/N=C/c5ccc(N(C)C)cc5)nc4cc3s2)cc1	42.5 µM (inactive)
O=C(Nc1sccc1S(=O)(=O)c1ccc(Cl)cc1)c1ccccc1	> 100 µM (inactive)
CC(C)[Si](OCC/C=C/C1CCC(=O)C1C(O)C1CCCCC1)(C(C)C)C(C)C (stereo not drawn)	15 µM (inactive)
O=C(/C=C/c1ccc([N+](=O)[O-])cc1)N1CCN(CCOC(c2ccc(F)cc2)c2ccc(F)cc2)CC1	4.74 µM (inactive)
CCOC(=O)c1c(SCCN(CC)CC)n(-c2ccccc2)c(=S)n(-c2ccccc2)c1=O	2.55 µM (inactive)
Cn1c(=O)c2[nH]c(N=O)nc2n(C)c1=O	> 100 µM (inactive)
COc1cc(-c2ccccc2)cn2c1nc1ccccc12	20.7 µM (inactive)
O=CC(I)=C(c1ccccc1)c1ccccc1	13.3 µM (inactive)
CN(C)c1c(Cl)c(=O)oc2c1ccc1nc(-c3ccccc3)sc12	> 100 µM (inactive)
Nc1ncnn2c(C3OC(CO)C(O)C3O)ccc12 (stereo not drawn)	0.291 µM (active)
Oc1ccc(Cl)cc1-c1cc(-c2ccccc2)nc(NCN2CCCCC2)n1	> 100 µM (inactive)
COc1ccc(/C=C(/C#N)C(N)=O)c(OC)c1	> 100 µM (inactive)
COc1ccc(/C=C2\N=C(c3ccccc3)OC2=O)cc1OC(C)=O	> 100 µM (inactive)
CCOC1C=CC(=O)C(CO)O1 (stereo not drawn)	8.81 µM (inactive)

SMILES	GI50
Cc1cccc(NC(=S)Nc2ccc(Cl)cc2)n1	> 100 µM (inactive)
FC(F)(F)c1ccccc1N1CCN(c2nc(-c3cccs3)nc3ccc(Br)cc23)CC1	2.37 µM (inactive)
CCCCCCC(C)CC(CCCCCC)NCCOC(=O)c1ccc([N+](=O)[O-])cc1 (stereo not drawn)	15.6 µM (inactive)
COc1ccc2c3c1O[C@H]1C(=O)C=CC4(n5[nH]c(=O)n(-c6ccccc6)c5=O)C(C2)N(C)CCC314 (stereo partly drawn)	> 100 µM (inactive)
CN1C(=O)c2ccc3ccccc3c2C1=O	63.5 µM (inactive)
N#Cc1c(N2CCCC2)ncn(-c2ccccc2)c1=O	> 100 µM (inactive)
Cc1cccc2c1NC(=S)[C@@H]1CCCN1C2=O	> 100 µM (inactive)
O=C(O)c1cccc(OCCOc2cccc(C(=O)O)c2[N+](=O)[O-])c1[N+](=O)[O-]	> 100 µM (inactive)
C=C(Cl)CN1c2ccccc2C=Cc2ccccc21	16.9 µM (inactive)
N=C(N)c1ccc(C(NC(=O)CNS(=O)(=O)c2ccc3ccccc3c2)P(=O)(Oc2ccccc2)Oc2ccccc2)cc1 (stereo not drawn)	65.3 µM (inactive)
CC(=O)OC1COC(n2nc(N)nc2C)C(OC(C)=O)C1OC(C)=O (stereo not drawn)	> 100 µM (inactive)
Cn1c(N)cc(=O)nc1N	> 100 µM (inactive)
COc1ccc2c(c1)/C(=C(\C(Cl)=C(Cl)Cl)[N+](=O)[O-])N2	67.3 µM (inactive)
CN(C)CC[N+](C)(C)[BH2-]C(O)O	> 100 µM (inactive)
CC[C@H](C)[C@H]1NC(=O)[C@@H](NC(=O)[C@@H](CC(C)C)N(C)C(=O)C2CCCN2C(=O)[C@H](C)O)[C@@H](C)OC(=O)[C@H](Cc2ccccc2)N(C)C(=O)[C@@H]2CCCN2C(=O)[C@H](CC(C)C)NC(=O)[C@@H](C)C(=O)[C@H](C(C)C)OC(=O)C[C@@H]1O (stereo partly drawn)	< 0.00625 µM (active)
c1csc(-c2ccsc2-c2cccs2)c1	29.9 µM (inactive)
C=C(C)[C@@H]1CC[C@]2(C(=O)O)CC[C@]3(C)[C@H](CC[C@@H]4[C@@]5(C)CC(=O)C(C)(C)[C@@H]5CC[C@]43C)[C@@H]12	14.9 µM (inactive)
Oc1ccc(-c2nc(-c3cccnc3)c(-c3ccc(Cl)cc3)[nH]2)cc1	11.7 µM (inactive)
COc1cc(OC)c2c(=O)c(O)c(-c3ccc(OC)c(OC)c3)oc2c1	4.97 µM (inactive)
